Data published in patent publication US6002009A, “Di-substituted 1,4-piperidine esters and amides having 5-HT4 antagonistic activity” (Boehringer Ingelheim Italia, S.p.A., priority 1995, dated 1999).

Molecular target: 5-HT4 receptor (Sus scrofa, UniProt Q6Q253)
Assay: 5-HT4 receptor binding (competition against [^3 H]-GR 113808, pig striatum)
Conditions: 0.1 nM [^3 H]-GR 113808, 30 min at 37° C., read-out: Ki (affinity for the 5-HT4 receptor)
Experimental: The affinity of the compounds of formula (I) for 5-HT4 serotoninergic receptors was tested "in vitro" by receptor binding studies in the pig striatum, a tissue particularly rich in 5-HT4 receptors.
Receptor binding studies on 5-HT4 receptor were carried out to determine the affinity of the test compounds.
Pig striatum was removed, cleaned and homogenized (w/v 1:70) with an Ultra-Turrax at maximal speed for 30 s, followed by use of a Potter-Elvehjem homogenizer (30 strokes) in 50 mM Hepes buffer, pH 7.4 and filtered through two layers of cheese-cloth.
Binding curves for the different compounds were derived indirectly from competition experiments against 0.1 nM [^3 H]-GR 113808.
A 1 ml aliquot of homogenate was incubated for 30 min at 37° C. in the presence of the marker ligand and different concentrations of the cold ligands.
The incubation was stopped by rapid filtration using an automatic apparatus (1H -110 Inotech). The filters (Inotech glass fibre filter, type G7) were then transferred to scintillation vials containing 4 ml of Filter Count (Packard) and the radioactivity present was counted by liquid scintillation spectrometry (Kontron Betamat V). Assays were carried out in triplicated and non specific binding was defined as the radioactivity bound or entrapped in the filter when the incubation medium contained 10 μM of BIMU 0001 (3-ethyl-2,3-dihydro-2-oxo-benzimidazole-1(3a-tropyl carboxamide). Non specific binding was about 10-15%. The inhibition constant (Ki) was calculated after correction for the radioligand occupancy shift according to the equation of Cheng and Prusoff (Biochem. Pharmacol. 22, 3099, 1973).

Sequence of 5-HT4 receptor (Q6Q253 1-402): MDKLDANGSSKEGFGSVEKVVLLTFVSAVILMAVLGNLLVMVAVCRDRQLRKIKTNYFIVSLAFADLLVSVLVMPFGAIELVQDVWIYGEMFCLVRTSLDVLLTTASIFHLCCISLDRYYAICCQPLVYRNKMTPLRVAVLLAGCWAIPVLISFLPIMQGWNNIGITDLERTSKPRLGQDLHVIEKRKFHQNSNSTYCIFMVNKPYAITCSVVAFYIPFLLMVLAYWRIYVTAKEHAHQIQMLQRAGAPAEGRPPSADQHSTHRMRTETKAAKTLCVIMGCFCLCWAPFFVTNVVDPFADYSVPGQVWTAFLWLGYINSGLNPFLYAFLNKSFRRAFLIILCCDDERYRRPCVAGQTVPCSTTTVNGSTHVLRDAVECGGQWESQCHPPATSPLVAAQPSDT

Row | Ki [nM] | SMILES
1 | 4.6 | CCNC(=O)N[C@@H](Cc1c[nH]c2ccccc12)CN1CCC(COC(=O)c2cc(Cl)c(N)cc2OC)CC1 [Compound 1, S(+)-4-Amino-5-chloro-2-methoxy-benzoic acid {1-[2-(3-ethyl-ureido)-3-(1H-indol-3-yl)propyl]piperidin-4-yl} methyl, ester]
2 | 4.3 | CCn1c(=O)n(C(=O)NCC2CCN(C[C@H](CC(N)=O)NC(=O)Nc3ccccc3)CC2)c2ccccc21 [Compound 30, S(+)-3-Ethyl-2-oxo-2,3-dihydro-benzimidazol-1-carboxamide-{1-[2-(3-phenyl-ureido)-3-carbamoyl-propyl]-piperidin-4-yl-methyl}]
3 | 0.16 | COc1[nH]c2ccc(F)cc2c1C(=O)OCC1CCN(C[C@H](CO)NC(=O)OCc2ccccc2)CC1 [Compound 17, R(+)-5-Fluoro-2-methoxy-1H-indol-3-carboxylic acid [1-(2-benzyloxycarbonyl-amino-3-hydroxy-propyl)-piperidin-4-yl]methyl ester]
4 | 3.2 | CCOC(=O)N[C@@H](CCSC)CN1CCC(CNC(=O)n2c(=O)n(CC)c3ccccc32)CC1 [Compound 34, S(+)-3-Ethyl-2-oxo-2,3-dihydro-benzimidazol-1-carboxamide-[1-(2-ethoxycarbonylamino-4-methylthio-butyl)-piperidin-4-yl-methl]]
5 | 2.9 | O=C(Nc1ccccc1)N[C@@H](CO)CN1CCC(COC(=O)c2c[nH]c3ccc(F)cc23)CC1 [Compound 16, R(+)-5-Fluoro-1H-indol-3-carboxylic acid {1-[2-(3-phenyl-ureido)-3-hydroxy-propyl]-piperidin-4-yl} methyl ester]
6 | 1.3 | C[C@@H](CN1CCC(COC(=O)n2c(=O)[nH]c3ccccc32)CC1)NC(=O)OCc1ccccc1 [Compound 21, S(+)-2-Oxo-2,3-dihydro-benzimidazol-1-carboxylic acid [1-(2-benzyloxycarbonyl-amino)-propyl-piperidin-4-yl]-methyl ester]
7 | 0.86 | CCn1c(=O)n(C(=O)OCC2CCN(C[C@H](C)NC(=O)OCc3ccccc3)CC2)c2ccccc21 [Compound 23, S(+)-3-Ethyl-2-oxo-2,3-dihydro-benzimidazol-1-carboxylic acid [1-(2-benzyloxycarbonyl-amino)-propyl-piperidin-4-yl]-methyl ester]
8 | 4.3 | CCNC(=O)N[C@@H](CO)CN1CCC(COC(=O)n2c3ccccc3c3ccccc32)CC1 [Compound 13, R(+)-Carbazole-9-carboxylic acid {1-[2-(3-ethyl-ureido)-3-hydroxy-propyl]-piperidin-4-yl} methyl ester]
9 | 1.6 | CCn1c(=O)n(C(=O)NCC2CCN(C[C@H](CO)NC(=O)Nc3ccccc3)CC2)c2ccccc21 [Compound 35, R(+)-3-Ethyl-2-oxo-2,3-dihydro-benzimidazol-1-carboxamide-{1-[2-(3-phenyl-ureido)-3-hydroxy-propyl]-piperidin-4-yl-methyl}]
10 | 2.1 | COc1cc(N)c(Cl)cc1C(=O)OCC1CCN(C[C@H](Cc2c[nH]c3ccccc23)NC(=O)OCc2ccccc2)CC1 [Compound 10, S(+)-4-Amino-5-chloro-2-methoxybenzoic acid {1-[2-benzyloxycarbonyl-amino-3-(1H-indol-3-yl)-propyl]piperidin-4-yl} methyl ester]
11 | 2.8 | CCOC(=O)N[C@@H](CO)CN1CCC(COC(=O)n2c3ccccc3c3ccccc32)CC1 [Compound 12, R(+)-Carbazole-9-carboxylic acid [1(2-ethoxycarbonyl-amino-3-hydroxy-propyl)-piperidin-4-yl]methyl ester]
12 | 1 | CCn1c(=O)n(C(=O)NCC2CCN(C[C@H](CCSC)NC(=O)Nc3ccccc3)CC2)c2ccccc21 [Compound 26, S(-)-3-Ethyl-2-oxo-2,3-dihydro-benzimidazol-1-carboxamide-{1-[2-(3-phenyl-ureido)-4-methylthio-butyl]-piperidin-4-yl-methyl}]
13 | 4.3 | CCOC(=O)N[C@@H](CCSC)CN1CCC(COC(=O)c2cc(Cl)c(N)cc2OC)CC1 [Compound 9, S(+)-4-Amino-5-chloro-2-methoxy-benzoic acid [1-(2-ethoxycarbonyl-amino-4-methylthio-butyl)-piperidin-4-yl]methyl ester]
14 | 0.37 | CCn1c(=O)n(C(=O)NCC2CCN(C[C@H](CO)NC(=O)OCc3ccccc3)CC2)c2ccccc21 [Compound 37, R(+)-3-Ethyl-2-oxo-2,3-dihydro-benzimidazol-1-carboxamide-[1-(2-benzyloxycarbonylamino-3-hydroxy-propyl)-piperidin-4-yl-methyl]]
15 | 0.25 | CCOC(=O)N[C@@H](CO)CN1CCC(COC(=O)c2c(OC)[nH]c3ccc(F)cc23)CC1 [Compound 19, R(+)-5-Fluoro-2-methoxy-1H-indol-3-carboxylic acid [1-(2-ethoxycarbonyl-amino-3-hydroxy-propyl)piperidin-4-yl]methyl ester]
16 | 3 | CCNC(=O)N[C@@H](CO)CN1CCC(CNC(=O)n2c(=O)n(CC)c3ccccc32)CC1 [Compound 36]
17 | 1.1 | COc1cc(N)c(Cl)cc1C(=O)OCC1CCN(C[C@H](Cc2ccccc2)NC(=O)OCc2ccccc2)CC1 [Compound 11, S(+)-4-Amino-5-chloro-2-methoxybenzoic acid [1-(2-benzyloxycarbonyl-amino-3-phenyl-propyl)-piperidin-4-yl]methyl ester]
